Experimental data as given in patent US20240190904A1, “Heteroaryl compounds as inhibitors of RIP2 kinase, composition and application thereof” (Accro Bioscience (HK) Limited, priority 2021, published 2024).

Tests used:
[1] = Metabolic stability test, HLM; assay type: in vitro ADME; conditions: human, liver microsomes; for CLint scaled at 1 μM: pH 7.4, read-out: Cl (mL/min/kg) HLM; for half-life at 1 μM: pH 7.4, read-out: T1/2 (min) HLM
Method: • 1. Buffers: • Buffer A: 1.0 L of 0.1 M monobasic Potassium Phosphate buffer containing 1.0 mM EDTA • Buffer B: 1.0 L of 0.1 M Dibasic Potassium Phosphate buffer containing 1.0 mM EDTA • Buffer C: 0.1 M Potassium Phosphate buffer, 1.0 mM EDTA, pH 7.4 by titrating 700 mL of buffer B with buffer A while monitoring with the pH meter. • 2. Reference compounds (Ketanserin) and test compounds spiking solution: • 500 μM spiking solution: add 10 μL of 10 mM DMSO stock solution into 190 μL ACN. • 1.5 μM spiking solution in microsomes (0.75 mg/mL): add 1.5 μL of 500 μM spiking solution and 18.75 μL of 20 mg/mL liver microsomes into 479.75 μL of Buffer C on ice. • 3. Prepare NADPH stock solution (6 mM) by dissolving NADPH into buffer C. • 4. Dispense 30 μL of 1.5 μM spiking solution containing 0.75 mg/mL microsomes solution to the assay plates designated for different time points (0-, 5-, 15-, 30-, 45-min) on ice. • 5. For 0-min time point, add 135 μL of ACN containing IS to the wells of 0-min plate and then add 15 μL of NADPH stock solution (6 mM). • 6. Pre-incubate all other plates at 37° C. for 5 minutes. • 7. Add 15 μL of NADPH stock solution (6 mM) to the plates to start the reaction and timing. • 8. At 5-min, 15-min, 30-min, and 45-min, add 135 μL of ACN containing IS to the wells of corresponding plates, respectively, to stop the reaction. • 9. After quenching, shake the plates at the vibrator (IKA, MTS 2/4) for 10 min (600 rpm/min) and then centrifuge at 5594 g for 15 min (ThermoMultifuge×3R). • 10. Transfer 50 μL of the supernatant from each well into a 96-well sample plate containing 50 μL of ultra pure water (Millipore, ZMQS50F01) for LC/MS analysis.

RIP2 kinase = RIP2 kinase (Homo sapiens (Human), UniProt O43353); test: Binding affinity assay (Kd)
Method: For most assays, kinase-tagged T7 phage strains were prepared in an E. coli host derived from the BL21 strain. E. coli were grown to log-phase and infected with T7 phage and incubated with shaking at 32° C. until lysis. The lysates were centrifuged and filtered to remove cell debris. The remaining kinases were produced in HEK-293 cells and subsequently tagged with DNA for qPCR detection. Streptavidin coated magnetic beads were treated with biotinylated small molecule ligands for 30 minutes at room temperature to generate affinity resins for kinase assays. The liganded beads were blocked with excess biotin and washed with blocking buffer (SeaBlock (Pierce), 1% BSA, 0.05% Tween 20, 1 mM DTT) to remove unbound ligand and to reduce non-specific binding. Binding reactions were assembled by combining kinases, liganded affinity beads, and test compounds in 1× binding buffer (20% SeaBlock, 0.17×PBS, 0.05% Tween 20, 6 mM DTT). Test compounds were prepared as 111× stocks in 100% DMSO. Kds were determined using an 11-point 3-fold compound dilution series with three DMSO control points. All compounds for Kd measurements are distributed by acoustic transfer (non-contact dispensing) in 100% DMSO. The compounds were then diluted directly into the assays such that the final concentration of DMSO was 0.9%. All reactions performed in polypropylene 384-well plate. Each was a final volume of 0.02 ml. The assay plates were incubated at room temperature with shaking for 1 hour and the affinity beads were washed with wash buffer (1×PBS, 0.05% Tween 20). The beads were then re-suspended in elution buffer (1×PBS, 0.05% Tween 20, 0.5 μM nonbiotinylated affinity ligand) and incubated at room temperature with shaking for 30 minutes. The kinase concentration in the eluates was measured by qPCR.
An 11-point 3-fold serial dilution of each test compound was prepared in 100% DMSO at 100× final test concentration and subsequently diluted to 1× in the assay (final DMSO concentration=1%). Most Kds were determined using a compound top concentration=30,000 nM. If the initial Kd determined was <0.5 nM (the lowest concentration tested), the measurement was repeated with a serial dilution starting at a lower top concentration.
Binding constants (Kds) were calculated with a standard dose-response curve using the Hill equation: […]
The Hill Slope was set to −1.
Curves were fitted using a non-linear least square fit with the Levenberg-Marquardt algorithm.

Caco-2 permeability test = assay type: in vitro ADME; conditions: human, Caco-2, pH 7.4
Method: (§1) • 1. Prewarm HBSS Buffer in 37° C. water bath • 2. Take compounds from −20° C., sonicate for a few minutes (no less than 1 minute) • 3. Solution preparation
(§2) For A-to-B direction: • HBSS buffer with 0.3% DMSO and 5 μM LY: add 150 μL DMSO and 50 μL LY (5 mM) into 50 ml HBSS buffer (pH7.4). • HBSS buffer with 0.1% DMSO and 5 μM LY: add 50 μL DMSO and 50 μL LY (5 mM) into 50 mL HBSS buffer (pH7.4).
(§3) For B-to-A direction: • HBSS buffer with 0.3% DMSO: add 150 μL DMSO into 50 ml HBSS buffer (pH7.4) • HBSS buffer with 0.1% DMSO: add 50 μL DMSO into 50 ml HBSS buffer (pH7.4).
(§4) Receiver Solution Buffer:
(§5) Prepare HBSS buffer with 0.4% DMSO: add 200 μL DMSO into 50 ml HBSS buffer (pH7.4).
(§6) For B-to-A direction: • Prepare HBSS buffer with 0.4% DMSO and 5 uM LY: add 200 μL DMSO and 50 μL LY (5 mM) into 50 ml HBSS buffer (pH7.4).
(§7) Take cell culture plate out of incubator, wash the cell monolayers with HBSS buffer, and then measure TEER values at Rm temperature. • 5. Centrifuge the compound solution (from step 3) at 4000 rpm for 5 min before loading to donor chambers. • 6. Add solution based on the volumes listed in the following table (make sure to take extra 100 uL of donor sample for T0 as Backup).
(§8) • 7. To determine LY concentration in the apical chamber, take 100 μL sample from apical chambers into an opaque plate for LYT0. • 8. Prewarm apical and basolateral plates at 37° C. for about 5 min, then begin transport by placing the apical plate onto basolateral plate. • 9. Keep the plates in incubator at 37° C. for 90 min • 10. Prepare 20× solution
(§9) • 11. Separate the apical plate from the basolateral plate after 90-min incubation. • 12. Take 100 μL samples from basolateral plate to an opaque plate as LYT90. • 13. Measure LY concentrations for LYT0 and LYT90 by Fluorometer (at excitation of 485 nm/emission of 535 nm). • 14. Sample preparation for LC-MS/MS: Donor or receiver samples are diluted by 0.4% DMSO HBSS, then mix with ACN with IS (Osalmid or Imipramine)

Caco-2 = Caco-2 permeability test; assay type: in vitro ADME; conditions: Caco-2
Method: as §1, §2, §3, §4, §5, §6, §7, §8, §9

[2] = efflux ratio, read-out: Caco-2 Permeability B-A/A-B

Sequence of RIP2 kinase (O43353 whole entry): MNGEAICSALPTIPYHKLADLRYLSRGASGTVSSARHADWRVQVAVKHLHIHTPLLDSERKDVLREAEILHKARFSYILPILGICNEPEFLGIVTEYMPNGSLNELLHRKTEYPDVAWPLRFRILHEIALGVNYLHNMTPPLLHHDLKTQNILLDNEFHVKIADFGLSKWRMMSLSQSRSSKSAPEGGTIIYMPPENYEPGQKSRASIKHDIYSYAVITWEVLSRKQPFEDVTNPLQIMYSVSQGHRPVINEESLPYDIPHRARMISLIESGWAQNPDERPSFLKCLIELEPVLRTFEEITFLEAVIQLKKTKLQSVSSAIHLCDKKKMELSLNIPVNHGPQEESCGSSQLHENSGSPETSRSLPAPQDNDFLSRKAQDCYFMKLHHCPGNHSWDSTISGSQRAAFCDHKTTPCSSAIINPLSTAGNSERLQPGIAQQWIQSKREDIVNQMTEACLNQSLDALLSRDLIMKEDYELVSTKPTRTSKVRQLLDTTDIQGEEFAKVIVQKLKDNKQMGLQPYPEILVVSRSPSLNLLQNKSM

CLint scaled at 1 μM [1] | half-life at 1 μM [1] | Kd (RIP2 kinase) | Papp A→B at 90 min (Caco-2 permeability test; A-B) | Papp B→A at 90 min (Caco-2 permeability test; B-A) | efflux ratio at 90 min (Caco-2 permeability test; [2]) | efflux (in words) (Caco-2) | permeability (in words) (Caco-2) | Papp A→B at 90 min, 2 μM (Caco-2 permeability test; A-B, test at 2 μM) | Papp B→A at 90 min, 2 μM (Caco-2 permeability test; B-A, test at 2 μM) | efflux ratio at 90 min, 2 μM (Caco-2 permeability test; efflux ratio, test at 2 μM, read-out: Caco-2 Permeability B-A/A-B) | Compound
2.97 mL/min/kg | 586 min | 3.1 nM | 15.2 ×10⁻⁶ cm/s | 33 ×10⁻⁶ cm/s | 2.18 | no obvious efflux | high permeability |  |  |  | COc1cc2nccc(Nc3ccc4scnc4c3)c2cc1P(C)(C)=O [A6]
4.13 mL/min/kg | 421 min | 5.8 nM | 0.5 ×10⁻⁶ cm/s | 10.2 ×10⁻⁶ cm/s | 20.5 |  | low |  |  |  | CP(C)(=O)c1cc2c(Nc3ccc4scnc4c3)ccnc2cc1OCCO [A7, (4-(benzo[d]thiazol-5-ylamino)-7-(2-hydroxyethoxy)quinolin-6-yl)dimethylphosphine oxide]
15.9 mL/min/kg | 109 min | 2 nM | 11.9 ×10⁻⁶ cm/s | 35.6 ×10⁻⁶ cm/s | 2.98 | efflux substrate | favorable permeability |  |  |  | COCCOc1cc2nccc(Nc3ccc4scnc4c3)c2cc1P(C)(C)=O [A8]
33.5 mL/min/kg | 52 min | 2.1 nM | 7.85 ×10⁻⁶ cm/s | 46.5 ×10⁻⁶ cm/s | 5.92 |  | moderate |  |  |  | CC1(COc2cc3nccc(Nc4ccc5scnc5c4)c3cc2P(C)(C)=O)COC1 [A9]
22.9 mL/min/kg | 75.8 min | 3 nM | 7 ×10⁻⁶ cm/s | 35.9 ×10⁻⁶ cm/s | 5.13 |  | moderate |  |  |  | CP(C)(=O)c1cc2c(Nc3ccc4scnc4c3)ccnc2cc1O[C@H]1CCOC1 [A14]
19.6 mL/min/kg | 88.6 min | 3 nM | 5.36 ×10⁻⁶ cm/s | 35 ×10⁻⁶ cm/s | 6.53 |  | moderate |  |  |  | CP(C)(=O)c1cc2c(Nc3ccc4scnc4c3)ccnc2cc1O[C@@H]1CCOC1 [A15]
9.98 mL/min/kg | 174 min | 3.8 nM | 2.16 ×10⁻⁶ cm/s | 31.1 ×10⁻⁶ cm/s | 14.4 |  | low |  |  |  | CP(C)(=O)c1cc2c(Nc3ccc4scnc4c3)ccnc2cc1OC1COC1 [A16]
 |  | 5.2 nM |  |  |  | no obvious efflux | high permeability | 16.9 ×10⁻⁶ cm/s | 26.6 ×10⁻⁶ cm/s | 1.58 | CP(C)(=O)c1cc2c(Nc3ccc4scnc4c3)ccnc2cc1OC(F)(F)F [A24]
